Values after ≈ are worked out from the molar mass of the structure shown.

For the assay, the system named is S. pneumoniae ATCC 49619. As to the kind of experiment: Minimal inhibitory concentration (MIC) by broth microdilution (CLSI M7-A7). It counts as cell-based, Streptococcus pneumoniae. The following applies: Streptococcus pneumoniae, ATCC49619; cation-adjusted Mueller Hinton Broth supplemented with 3% (v/v) lysed horse blood; microdilution method. On the procedure:
Minimal inhibitory concentrations (MICs; mg/l) were determined in cation-adjusted MuellerHinton Broth (supplemented with 3% (v/v) lysed horse blood for testing Streptococcus pneumoniae) by a microdilution method following the description given in “Methods for Dilution Antimicrobial Susceptibility Tests for Bacteria that Grow Aerobically”, Approved standard, 7th ed., a Clinical and Laboratory Standards Institute (CLSI) Document M7-A7, Wayne, Pa., USA, 2006.
On the technique in general: In broth dilution the organism is exposed to a series of concentrations in liquid medium.
Broadly, the MIC is the lowest concentration found to suppress growth. The compound `CCNC(=O)Nc1cc2cccc(CNC(=O)OCc3cn[nH]c3)c2cn1.Cl` [Example 39, [3-(3-ethyl-ureido)-isoquinolin-8-ylmethyl]-carbamic acid 1H-pyrazol-4-ylmethyl ester hydrochloride] showed a minimum inhibitory concentration (MIC) of 2 µg/mL.

In turn, `C#CCCOC(=O)NCc1cccc2cc(NC(=O)NCC)ncc12.Cl` [Example 40, [3-(3-ethyl-ureido)-isoquinolin-8-ylmethyl]-carbamic acid but-3-ynyl ester hydrochloride] showed an MIC of 4 µg/mL.

In turn, `C#CCOC(=O)NCc1ccc(-c2ccncc2)c2cc(NC(=O)NCC)ncc12` [Example 41, [3-(3-ethyl-ureido)-5-pyridin-4-yl-isoquinolin-8-ylmethyl]-carbamic acid prop-2-ynyl ester] registered a minimum inhibitory concentration (MIC) of 0.25 µg/mL (≈ 0.62 µM).

On to `CCNC(=O)Nc1cc2c(-c3ccncc3)ccc(CNC(=O)OCc3cccnc3)c2cn1` [Example 42, [3-(3-ethyl-ureido)-5-pyridin-4-yl-isoquinolin-8-ylmethyl]-carbamic acid pyridin-3-ylmethyl ester], for which 0.5 µg/mL (≈ 1.1 µM) was the least that counted as inhibitory (MIC).

As to `CCNC(=O)NCc1cccc2cc(NC(=O)NCC)ncc12` [Example 43, 1-ethyl-3-{8-[(3-ethyl-ureido)-methyl]isoquinolin-3-yl}-urea], inhibition of growth (MIC) required 4 µg/mL (≈ 12.7 µM).

With `C#CCOC(=O)N(C)Cc1cccc2cc(NC(=O)NCC)ncc12` [Example 44, [3-(3-ethyl-ureido)-isoquinolin-8-ylmethyl]-methyl-carbamic acid prop-2-ynyl ester], the MIC came to 8 µg/mL (≈ 23.5 µM).

Consider `CCNC(=O)Nc1cc2c(-c3ccncc3)ccc(CNC(=O)CC(=O)O)c2cn1` [Example 45, N-[3-(3-ethyl-ureido)-5-pyridin-4-yl-isoquinolin-8-ylmethyl]-malonamic acid], for which it took 8 µg/mL (≈ 19.6 µM) to inhibit growth (MIC).

Take `CCNC(=O)Nc1cc2c(-c3ccncc3)ccc(CNC(=O)CCC(=O)OC(C)(C)C)c2cn1` [Example 46, N-[3-(3-ethyl-ureido)-5-pyridin-4-yl-isoquinolin-8-ylmethyl]-succinamic acid tert-butyl ester]: the minimal inhibitory concentration (MIC) came out at 2 µg/mL (≈ 4.19 µM). This MIC lies about 4-fold lower than the previous one.

Regarding `CCNC(=O)Nc1cc2c(-c3ccncc3)ccc(CNC(=O)CNC(=O)OC(C)(C)C)c2cn1` [Example 47, ({[3-(3-ethyl-ureido)-5-pyridin-4-yl-isoquinolin-8-ylmethyl]-carbamoyl}-methyl)-carbamic acid tert-butyl ester], the MIC worked out at 1 µg/mL (≈ 2.09 µM). Compared with the last compound, the MIC is about 2-fold lower.

As to `CCNC(=O)Nc1cc2c(-c3ccncc3)ccc(CNC(=O)CN(C)C(=O)OC(C)(C)C)c2cn1` [Example 48, ({[3-(3-ethyl-ureido)-5-pyridin-4-yl-isoquinolin-8-ylmethyl]-carbamoyl}-methyl)-methyl-carbamic acid tert-butyl ester], the minimum inhibitory concentration (MIC) is 2 µg/mL (≈ 4.06 µM).

Compound `CCNC(=O)Nc1cc2c(-c3ccncc3)ccc(CNC(=O)CCNC(=O)OC(C)(C)C)c2cn1` [Example 49, (2-{[3-(3-ethyl-ureido)-5-pyridin-4-yl-isoquinolin-8-ylmethyl]-carbamoyl}-ethyl)-carbamic acid tert-butyl ester] returned a minimum inhibitory concentration (MIC) of 0.5 µg/mL (≈ 1.02 µM). This MIC lies about 4-fold lower than the previous one.

`CCNC(=O)Nc1cc2c(-c3ccncc3)ccc(CNC(=O)CN)c2cn1.Cl` [Example 50, 2-amino-N-[3-(3-ethyl-ureido)-5-pyridin-4-yl-isoquinolin-8-ylmethyl]-acetamide hydrochloride] showed an MIC of 4 µg/mL.

Regarding `CCNC(=O)Nc1cc2c(-c3ccncc3)ccc(CNC(=O)CCN)c2cn1.Cl` [Example 51, 3-amino-N-[3-(3-ethyl-ureido)-5-pyridin-4-yl-isoquinolin-8-ylmethyl]-propionamide hydrochloride], the lowest concentration to inhibit growth (MIC) was 8 µg/mL.

In turn, `CCNC(=O)Nc1cc2c(-c3ccncc3)ccc(CNC(=O)CC(N)=O)c2cn1` [Example 52, N-[3-(3-ethyl-ureido)-5-pyridin-4-yl-isoquinolin-8-ylmethyl]-malonamide] showed a minimal inhibitory concentration (MIC) of 2 µg/mL (≈ 4.92 µM).

In the case of `CCNC(=O)Nc1cc2c(-c3ccncc3)ccc(CNC(=O)CC(=O)NC)c2cn1` [Example 53, N-[3-(3-ethyl-ureido)-5-pyridin-4-yl-isoquinolin-8-ylmethyl]-N′-methyl-malonamide], the minimum inhibitory concentration (MIC) was 4 µg/mL (≈ 9.51 µM).

Take `CCNC(=O)Nc1cc2c(-c3ccncc3)ccc(CNC(=O)CCC(N)=O)c2cn1` [Example 54, N-[3-(3-ethyl-ureido)-5-pyridin-4-yl-isoquinolin-8-ylmethyl]-succinamide]: the MIC was 4 µg/mL (≈ 9.51 µM).

With `CCNC(=O)Nc1cc2c(-c3ccncc3)ccc(CNC(=O)CCC(=O)NC)c2cn1` [Example 55, N-[3-(3-ethyl-ureido)-5-pyridin-4-yl-isoquinolin-8-ylmethyl]-N′-methyl-succinamide], the MIC came out at 8 µg/mL (≈ 18.4 µM).

The compound `CCNC(=O)Nc1cc2c(-c3ccncc3)ccc(CNC(=O)CCCNC(=O)OC(C)(C)C)c2cn1` [Example 56, (3-{[3-(3-ethyl-ureido)-5-pyridin-4-yl-isoquinolin-8-ylmethyl]-carbamoyl}-propyl)-carbamic acid tert-butyl ester] had a minimum inhibitory concentration (MIC) of 1 µg/mL (≈ 1.97 µM).

`CCNC(=O)Nc1cc2c(-c3ccncc3)ccc(CNC(=O)CC3CC3)c2cn1` [Example 57, 2-cyclopropyl-N-[3-(3-ethyl-ureido)-5-pyridin-4-yl-isoquinolin-8-ylmethyl]-acetamide] displayed an MIC of 0.5 µg/mL (≈ 1.24 µM).

In turn, `CCNC(=O)Nc1cc2c(-c3ccncc3)ccc(CNC(=O)CCN(C)C(=O)OC(C)(C)C)c2cn1` [Example 58, (2-{[3-(3-ethyl-ureido)-5-pyridin-4-yl-isoquinolin-8-ylmethyl]-carbamoyl}-ethyl)-methyl-carbamic acid tert-butyl ester] gave an MIC of 2 µg/mL (≈ 3.95 µM).

On to `CCNC(=O)Nc1cc2c(-c3ccncc3)ccc(CNC(=O)CC)c2cn1` [Example 59, N-[3-(3-ethyl-ureido)-5-pyridin-4-yl-isoquinolin-8-ylmethyl]-propionamide], for which it took 0.5 µg/mL (≈ 1.32 µM) to inhibit growth (MIC).

`CCNC(=O)Nc1cc2c(-c3ccncc3)ccc(CNC(=O)Cc3c[nH]cn3)c2cn1` [Example 60, N-[3-(3-ethyl-ureido)-5-pyridin-4-yl-isoquinolin-8-ylmethyl]-2-(1H-imidazol-4-yl)-acetamide] came in with an MIC of 8 µg/mL (≈ 18.6 µM). This MIC is about 16-fold higher than that of the compound before.

Compound `CCNC(=O)Nc1cc2c(-c3ccncc3)ccc(CNC(=O)CO)c2cn1` [Example 61, N-[3-(3-ethyl-ureido)-5-pyridin-4-yl-isoquinolin-8-ylmethyl]-2-hydroxy-acetamide] gave an MIC of 4 µg/mL (≈ 10.5 µM). Compared with the last compound, the MIC is about 2-fold lower.

Take `CCNC(=O)Nc1cc2c(-c3ccncc3)ccc(CNC(=O)CCCN(C)C(=O)OC(C)(C)C)c2cn1` [Example 62, (3-{[3-(3-ethyl-ureido)-5-pyridin-4-yl-isoquinolin-8-ylmethyl]-carbamoyl}propyl)-methyl-carbamic acid tert-butyl ester]: the MIC came to 1 µg/mL (≈ 1.92 µM).

Take `CCNC(=O)Nc1cc2c(-c3ccncc3)ccc(CNC(=O)CCOC)c2cn1` [Example 63, N-[3-(3-ethyl-ureido)-5-pyridin-4-yl-isoquinolin-8-ylmethyl]-3-methoxy-propionamide]: it took 1 µg/mL (≈ 2.45 µM) to inhibit growth (MIC).

On to `CCNC(=O)Nc1cc2c(-c3ccncc3)ccc(CNC(C)=O)c2cn1` [Example 64, N-[3-(3-ethyl-ureido)-5-pyridin-4-yl-isoquinolin-8-ylmethyl]-acetamide], for which 0.5 µg/mL (≈ 1.38 µM) was the least that counted as inhibitory (MIC).

`CCNC(=O)Nc1cc2c(-c3ccncc3)ccc(CNC(=O)C3CC3)c2cn1` [Example 65, cyclopropanecarboxylic acid [3-(3-ethyl-ureido)-5-pyridin-4-yl-isoquinolin-8-ylmethyl]-amide] registered an MIC of 0.25 µg/mL (≈ 0.642 µM).

For `CCNC(=O)Nc1cc2c(-c3ccncc3)ccc(CNC(=O)CC(C)C)c2cn1` [Example 66, N-[3-(3-ethyl-ureido)-5-pyridin-4-yl-isoquinolin-8-ylmethyl]-3-methyl-butyramide], inhibition of growth (MIC) required 0.25 µg/mL (≈ 0.617 µM).

`CCNC(=O)Nc1cc2c(-c3ccncc3)ccc(CNC(=O)C(C)C)c2cn1` [Example 67, N-[3-(3-ethyl-ureido)-5-pyridin-4-yl-isoquinolin-8-ylmethyl]-isobutyramide]: the MIC was 0.5 µg/mL (≈ 1.28 µM).

Turning to `CCNC(=O)Nc1cc2c(-c3ccncc3)ccc(CNC(=O)CCO)c2cn1` [Example 68, N-[3-(3-ethyl-ureido)-5-pyridin-4-yl-isoquinolin-8-ylmethyl]-3-hydroxy-propionamide], the MIC was 4 µg/mL (≈ 10.2 µM).

As for `C#CCCC(=O)NCc1ccc(-c2ccncc2)c2cc(NC(=O)NCC)ncc12` [Example 69, pent-4-ynoic acid [3-(3-ethyl-ureido)-5-pyridin-4-yl-isoquinolin-8-ylmethyl]-amide], the MIC was 0.25 µg/mL (≈ 0.623 µM).

Take `CCNC(=O)Nc1cc2c(-c3ccncc3)ccc(CNC(=O)Cn3cccn3)c2cn1` [Example 70, N-[3-(3-ethyl-ureido)-5-pyridin-4-yl-isoquinolin-8-ylmethyl]-2-pyrazol-1-yl-acetamide]: inhibition of growth (MIC) required 0.5 µg/mL (≈ 1.16 µM). Compared with the last compound, the MIC is about 2-fold higher.

Compound `CCNC(=O)Nc1cc2c(-c3ccncc3)ccc(CNC(=O)c3cnc[nH]3)c2cn1` [Example 71, 3H-imidazole-4-carboxylic acid [3-(3-ethyl-ureido)-5-pyridin-4-yl-isoquinolin-8-ylmethyl]-amide] returned an MIC of 2 µg/mL (≈ 4.81 µM).

With `CCNC(=O)Nc1cc2c(-c3ccncc3)ccc(CNC(=O)c3cc[nH]n3)c2cn1` [Example 72, 1H-pyrazole-3-carboxylic acid [3-(3-ethyl-ureido)-5-pyridin-4-yl-isoquinolin-8-ylmethyl]-amide], the minimum inhibitory concentration (MIC) was determined as 0.5 µg/mL (≈ 1.2 µM).

For `CCNC(=O)Nc1cc2c(-c3ccncc3)ccc(CNC(=O)c3cn[nH]c3)c2cn1` [Example 73, 1H-pyrazole-4-carboxylic acid [3-(3-ethyl-ureido)-5-pyridin-4-yl-isoquinolin-8-ylmethyl]-amide], the MIC was found to be 2 µg/mL (≈ 4.81 µM).

The compound `CCNC(=O)Nc1cc2c(-c3ccncc3)ccc(CNC(=O)c3ncc[nH]3)c2cn1` [Example 74, 1H-imidazole-2-carboxylic acid [3-(3-ethyl-ureido)-5-pyridin-4-yl-isoquinolin-8-ylmethyl]-amide] had an MIC of 0.25 µg/mL (≈ 0.602 µM). This MIC lies about 8-fold lower than the previous one.
